# Patent publication US20240043444A1, “METHODS FOR TREATING SPINOCEREBELLAR ATAXIA TYPE 3” (PTC Therapeutics, Inc., priority 2021, published 2024)
# Key:
# [1] = test system: ATXN3 Pre-mRNA (exon 4 skipping); assay: RT-qPCR Assay to Quantify Exon 4 Skipping in ATXN3 Pre-mRNA in Cells; format: cell-based; settings: cells incubated with compound 24 h, normalised to GAPDH, 7-point concentration curve
# Method: (§1) Test compounds were serially diluted 3.16-fold in 100% DMSO to generate a 7-point concentration curve. Aliquots of 0.5 μL of diluted compounds were transferred to a 96-well flat bottom plate by a liquid handler. An aliquot of 0.5 μL DMSO was also transferred to separate wells and used as controls. Duplicate samples were set up for each compound concentration and for the DMSO control.
# Cells were thawed and incubated in cell culture media (DMEM, 10% FBS, and 1% antibiotic cocktail) for 72 h. Cells were trypsinized, counted, and re-suspended to a concentration of 100,000 cells/mL in cell culture media. A 100 μL aliquot of the cell suspensions were plated at 10,000 cells per well in the compound containing 96 well microtiter plate and incubated for in a cell culture incubator (37° C., 5% CO2, 100% relative humidity).
# After 24 h, media was aspirated from the cells and 50 μL of the RCL2 lysis buffer (10 mM Tris-HCL pH 7.4, 150 mM NaCl, 0.33% IGEPAL® CA-630) was added to each well and incubated at room temperature for 1 min. Chilled nuclease free water (50 μL per well) was added and the plates were immediately transferred on ice. After 1 min on ice, plates were frozen at −80° C. overnight.
# Preparation of RT-qPCR Reaction Mixture:
# An aliquot of 2 μL/well of the cell lysates was transferred using the liquid handler to the Armadillo 384-Well PCR plate containing 8 μL/well of the RT-qPCR reaction mixture that was prepared as detailed above. The plates were then sealed with MicroAmp™ Optical Adhesive Film followed by spinning down for 1 min and placed in the CFX384 thermocycler (BioRad).
# The RT-qPCR was carried out at the following temperatures for the indicated time: • Step 1: 48° C. (30 min) • Step 2: 95° C. (10 min) • Step 3: 95° C. (15 sec) • Step 4: 60° C. (1 min); then, repeated Steps 3 and 4 for a total of 40 cycles.
# The percent exon 4 skipping was calculated for each dose of compound treatment using Equations 1 and 2.
# Data were fit to a dose response curve and the IC50 was interpolated using XLfit® statistical and curve fitting package.
# An IC50 value between >2.0 μM and ≤3.0 μM is indicated by one star (*). […] IC50 value between >0.5 μM and ≤1.0 μM is indicated by four stars (****). An IC50 value ≤0.5 μM is indicated by five stars (*****).
# [2] = test system: Endogenous Total ATXN3 (tATXN3) Protein; assay: Endogenous Total ATXN3 (tATXN3) Protein Assay (MSD immunoassay of cell lysates); format: cell-based; settings: cells incubated with compound 48 h; 7-point concentration curve; MSD plate readout
# Method: Meso Scale Discovery (MSD) 96-well or 384-well plates were coated overnight at 4° C. with Ataxin 3 mouse monoclonal antibody (Invitrogen, MA3-082) at a concentration of […] in PBS (30 μL per well). Plates were then washed three times with 300 μL wash buffer (0.05% TWEEN®-20, polyethylene glycol sorbitan monolaurate, in PBS) and blocked (Meso Scale Diagnostics, R93BA-1; 5% BSA in PBS) for 2 h at room temperature with rotational shaking and then washed three times with wash buffer.
# as §1
# Cells were thawed and incubated in cell culture media (DMEM, 10% FBS, and 1% antibiotic cocktail) for 72 h. Cells were trypsinized, counted, and re-suspended to a concentration of 100,000 cells/mL in cell culture media. A 100 μL aliquot of the cell suspensions were plated at 10,000 cells per well in the compound containing 96 well microtiter plate and incubated for in a cell culture incubator (37° C., 5% CO2, 100% relative humidity). After 48 h, the medium was removed and 50-100 μL of lysis buffer (Meso Scale Diagnostics, R60TX-2) containing 1× halt protease inhibitor cocktail of (Thermo Scientific, Halt™ Protease Inhibitor Cocktail, 78430) per well was added to cells to provide a “cell lysate”. The plate was placed on a shaker at 4° C. for 30 minutes, then stored at −80° C.
# Cell lysate samples (25 μL) were transferred to the antibody-coated MSD plate and incubated overnight at 4° C. After removal of the lysates, the plate was washed three times with wash buffer, and 25 μL of Ataxin 3 recombinant rabbit monoclonal antibody (Invitrogen, #702788) secondary antibody (diluted to 0.25 μg/mL in 0.05% TWEEN®-20 in blocking buffer) was added to each well and incubated with shaking for 1-2 h at room temperature. Following incubation with the secondary antibody, the wells were rinsed with wash buffer and then 25 μL of Anti Rabbit Antibody Goat SULFO-TAG Labeled (Meso Scale Diagnostics, R32AB-1) detecting antibody (diluted to 0.25 μg/mL in 0.05% TWEEN®-20 in blocking buffer) was added to each well and incubated with shaking for 1 h at room temperature. After rinsing three times with wash buffer, 150 μL of Read Buffer T with surfactant (tris-based buffer containing tripropylamine, Meso Scale Diagnostics, R92TC-1) were added to each empty well, and the plate was imaged on a SI 6000 imager (MSD) according to manufacturers' instructions provided for 96- or 384-well plates.
Structure (SMILES),IC50 (exon 4 skipping in ATXN3 pre-mRNA) [1],IC50 [2] [nM],"IC50 (average, total ATXN3 protein) [2]",IC50 [1] [nM]
"Cc1c(C[C@@H]2CCOC(=O)N2)sc2c(NCc3ccco3)nc(Cl)nc12 [Cpd 52, (4S)-4-[(2-chloro-4-{[(furan-2-yl)methyl]amino}-7-methylthieno[3,2-d]pyrimidin-6-yl)methyl]-1,3-oxazinan-2-one]",inactive,> 2000,,
"Cc1c(C2CCNC2)sc2c(NCc3ccco3)nc(Cl)nc12 (stereo not shown) [Cpd 57, 2-chloro-N-[(furan-2-yl)methyl]-7-methyl-6-(pyrrolidin-3-yl)thieno[3,2-d]pyrimidin-4-amine]",inactive,,inactive,
"Cc1c(C[C@@H](C)CN)sc2c(NCc3ccco3)nc(Cl)nc12 [Cpd 72, 6-[(2R)-3-amino-2-methylpropyl]-2-chloro-N-[(furan-2-yl)methyl]-7-methylthieno[3,2-d]pyrimidin-4-amine]",,> 2000,,1500 to 2000
"Cc1c(C[C@H](C)N)sc2c(NCc3ncccc3F)nc(Cl)nc12 [Cpd 59, 6-[(2S)-2-aminopropyl]-2-chloro-N-[(3-fluoropyridin-2-yl)methyl]-7-methylthieno[3,2-d]pyrimidin-4-amine]",,1500 to 2000,,1000 to 1500
"C[C@H](N)Cc1sc2c(NCc3ccncc3F)nc(Cl)nc2c1Br [Cpd 68, 6-[(2S)-2-aminopropyl]-7-bromo-2-chloro-N-[(3-fluoropyridin-4-yl)methyl]thieno[3,2-d]pyrimidin-4-amine]",,≤ 500,,≤ 500
"Cc1c(C[C@H](C)N)sc2c(NCc3cncs3)nc(Cl)nc12 [Cpd 74, 6-[(2S)-2-aminopropyl]-2-chloro-7-methyl-N-[(1,3-thiazol-5-yl)methyl]thieno[3,2-d]pyrimidin-4-amine]",,1500 to 2000,,1000 to 1500
"C[C@H](N)Cc1sc2c(NCc3ccco3)nc(Cl)nc2c1Br [Cpd 40, 6-[(2S)-2-aminopropyl]-7-bromo-2-chloro-N-[(furan-2-yl)methyl]thieno[3,2-d]pyrimidin-4-amine]",,≤ 500,,≤ 500
"Cc1c(C[C@H](C)N)sc2c(NCc3ccco3)nc(Br)nc12 [Cpd 38, 6-[(2S)-2-aminopropyl]-2-bromo-N-[(furan-2-yl)methyl]-7-methylthieno[3,2-d]pyrimidin-4-amine]",,≤ 500,,≤ 500
"CCc1c(C[C@H](C)N)sc2c(NCc3ccco3)nc(Cl)nc12 [Cpd 77, 6-[(2S)-2-aminopropyl]-2-chloro-7-ethyl-N-[(furan-2-yl)methyl]thieno[3,2-d]pyrimidin-4-amine]",,≤ 500,,≤ 500
"Cc1c(C[C@H](C)NC2CCC2)sc2c(NCc3ccco3)nc(Cl)nc12 [Cpd 78, 2-chloro-6-[(2S)-2-(cyclobutylamino)propyl]-N-[(furan-2-yl)methyl]-7-methylthieno[3,2-d]pyrimidin-4-amine]",,1500 to 2000,,1000 to 1500
"Cc1c(C[C@H](C)N)sc2c(NCc3cccs3)nc(Cl)nc12 [Cpd 28, 6-[(2S)-2-aminopropyl]-2-chloro-7-methyl-N-[(thiophen-2-yl)methyl]thieno[3,2-d]pyrimidin-4-amine]",,≤ 500,,≤ 500
"Cc1c(C[C@H](C)N)sc2c(NCc3cccnc3F)nc(Cl)nc12 [Cpd 60, 6-[(2S)-2-aminopropyl]-2-chloro-N-[(2-fluoropyridin-3-yl)methyl]-7-methylthieno[3,2-d]pyrimidin-4-amine]",,> 2000,,2000 to 3000
"Cc1c([C@H](C)N)sc2c(NCc3ccco3)nc(Cl)nc12 [Cpd 47, 6-[(1S)-1-aminoethyl]-2-chloro-N-[(furan-2-yl)methyl]-7-methylthieno[3,2-d]pyrimidin-4-amine]",inactive,,inactive,
"Cc1csc2c(NCc3ccncc3)nc(Cl)nc12 [Cpd 23, 2-chloro-7-methyl-N-[(pyridin-4-yl)methyl]thieno[3,2-d]pyrimidin-4-amine]",inactive,,inactive,
"C[C@H](N)Cc1sc2c(NCc3cccs3)nc(Cl)nc2c1-c1ccc(Cl)cc1 [Cpd 88, 6-[(2S)-2-aminopropyl]-2-chloro-7-(4-chlorophenyl)-N-[(thiophen-2-yl)methyl]thieno[3,2-d]pyrimidin-4-amine]",inactive,,inactive,
"Cc1c(C[C@H](C)N)sc2c(NCc3ccco3)nc(Cl)nc12 [Cpd 12, 6-[(2S)-2-aminopropyl]-2-chloro-N-[(furan-2-yl)methyl]-7-methylthieno[3,2-d]pyrimidin-4-amine]",,≤ 500,,≤ 500
"Cc1c(C[C@H](C)N)sc2c(NCc3ccnn3C)nc(Cl)nc12 [Cpd 81, 6-[(2S)-2-aminopropyl]-2-chloro-7-methyl-N-[(1-methyl-1H-pyrazol-5-yl)methyl]thieno[3,2-d]pyrimidin-4-amine]",inactive,,inactive,
"Cc1c(C[C@H](C)N)sc2c(NCc3nccs3)nc(Cl)nc12 [Cpd 29, 6-[(2S)-2-aminopropyl]-2-chloro-7-methyl-N-[(1,3-thiazol-2-yl)methyl]thieno[3,2-d]pyrimidin-4-amine]",,≤ 500,,≤ 500
"CC(C)[C@H](N)Cc1cc2nc(Cl)nc(NCc3ccco3)c2s1 [Cpd 5, 6-[(2R)-2-amino-3-methylbutyl]-2-chloro-N-[(furan-2-yl)methyl]thieno[3,2-d]pyrimidin-4-amine]",,≤ 500,,500 to 1000
"Cc1c(C[C@H](C)N)sc2c(NCc3ncccn3)nc(Cl)nc12 [Cpd 55, 6-[(2S)-2-aminopropyl]-2-chloro-7-methyl-N-[(pyrimidin-2-yl)methyl]thieno[3,2-d]pyrimidin-4-amine]",,> 2000,,2000 to 3000
"CC[C@H](N)Cc1sc2c(NCc3ccns3)nc(Cl)nc2c1C [Cpd 62, 6-[(2S)-2-aminobutyl]-2-chloro-7-methyl-N-[(1,2-thiazol-5-yl)methyl]thieno[3,2-d]pyrimidin-4-amine]",,≤ 500,,≤ 500
"Cc1c(C[C@H](C)N)sc2c(NCc3ncc(F)s3)nc(Cl)nc12 [Cpd 93, 6-[(2S)-2-aminopropyl]-2-chloro-N-[(5-fluoro-1,3-thiazol-2-yl)methyl]-7-methylthieno[3,2-d]pyrimidin-4-amine]",,≤ 500,,≤ 500
"Cc1csc(CNc2nc(Cl)nc3c(C)c(C[C@H](C)N)sc23)n1 [Cpd 27, 6-[(2S)-2-aminopropyl]-2-chloro-7-methyl-N-[(4-methyl-1,3-thiazol-2-yl)methyl]thieno[3,2-d]pyrimidin-4-amine]",,,inactive,2000 to 3000
